Molecules are shown by their SMILES.

This assay has as its target T1, FAST (Halorhodospira halophila, UniProt P16113, C69G/Y94W/T95M/F96I/D97P/Y98T/Q99S/M100R/T101G).
T1 construct: gene pyp; C-terminal His6 tag in NMR structure
T1 sequence (P16113 1-125 C69G/Y94W/T95M/F96I/D97P/Y98T/Q99S/M100R/T101G): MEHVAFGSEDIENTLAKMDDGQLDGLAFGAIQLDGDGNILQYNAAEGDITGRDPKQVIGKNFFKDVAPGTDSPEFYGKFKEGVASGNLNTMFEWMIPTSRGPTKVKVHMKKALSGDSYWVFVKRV
In words: solution NMR structure of the complex. In kind it is binding. The following applies: pH 7.0, 25 °C (1H NMR spectra); 13C/15N-labelled protein.

Take `COc1cc(O)ccc1/C=C1N=C(/C=C/c2ccncc2)N(C)C\1=O` [N871b]: the “solution NMR structure of the complex” value is “solved the spatial structure of the protein in complex with a promising ligand N871b”.

These data come from PMC8132994, “NanoFAST: structure-based design of a small fluorogen-activating protein with only 98 amino acids” (Chemical Science, 2021).
